ChEMBL document CHEMBL1201862, “PubChem BioAssay data set” (2004)
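Five compound concentrations were applied to cells in 96-well plates for 48 hours; endpoints were derived by simple linear interpolation of the resulting dose-response curve. At the GI50, growth is halved.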 Activity calls are given as the source filed them. Cut-off read from the data, not from the text of the source: active = GI50 up to about 1.1 µM and inactive = higher.

Columns and labels:
Assay in all cases: DTP human tumour cell line panel, 48 h
[1] = tested on: RXF 393
[2] = tested on: DU-145
[3] = tested on: SF-295
[4] = tested on: SNB-75
[5] = tested on: COLO 205
[6] = tested on: OVCAR-5
[7] = tested on: MOLT-4
[8] = tested on: TK-10
[9] = tested on: LOX IMVI
[10] = tested on: HOP-92
[11] = tested on: MDA-MB-231
[12] = tested on: Hs-578T
[13] = tested on: UACC-62
[14] = tested on: 786-0
[15] = tested on: K562
[16] = tested on: HCC 2998
[17] = tested on: SN12C
[18] = tested on: NCI/ADR-RES
[19] = tested on: HT-29
[20] = tested on: Malme-3M

SMILES | GI50 [1] | GI50 [2] | GI50 [3] | GI50 [4] | GI50 [5] | GI50 [6] | GI50 [7] | GI50 [8] | GI50 [9] | GI50 [10] | GI50 [11] | GI50 [12] | GI50 [13] | GI50 [14] | GI50 [15] | GI50 [16] | GI50 [17] | GI50 [18] | GI50 [19] | GI50 [20]
O=C(O)C1OC1(c1cccc(Cl)c1)c1ccccc1Cl (stereo not given) | 27.4 µM (inactive) | 26.1 µM (inactive) | 25.7 µM (inactive) | 19.9 µM (inactive) | 53.3 µM (inactive) | 58.7 µM (inactive) | 27.5 µM (inactive) | 31.5 µM (inactive) | 18 µM (inactive) | 23.1 µM (inactive) | 18.1 µM (inactive) | 25.4 µM (inactive) | 14.8 µM (inactive) | 43.1 µM (inactive) | 16.7 µM (inactive) | 25.9 µM (inactive) | 23 µM (inactive) | 18.1 µM (inactive) | 25.9 µM (inactive) | 19.7 µM (inactive)
O=C1CC2(CCC(O)(c3ccc(Cl)cc3)C(C(=O)c3ccc(Cl)cc3)C2)C(=O)c2ccccc2N1 (stereo not given) | 4.89 µM (inactive) | 6.82 µM (inactive) | 6.47 µM (inactive) | 0.146 µM (active) | 5.74 µM (inactive) | > 71 µM (inactive) | 2.12 µM (inactive) | 9.86 µM (inactive) | 11.7 µM (inactive) | 0.794 µM (active) | 10.2 µM (inactive) | 1.48 µM (inactive) | 14.8 µM (inactive) | 1.34 µM (inactive) | 3.28 µM (inactive) | 35.5 µM (inactive) | 5.68 µM (inactive) | 11.6 µM (inactive) | 3.89 µM (inactive) | > 28.1 µM (inactive)
N=C(N)N/N=C/c1cc(Cl)cc(Cl)c1O | 58.5 µM (inactive) | 75 µM (inactive) | 58.1 µM (inactive) | 30.2 µM (inactive) | 34.2 µM (inactive) | 78.2 µM (inactive) | 50.4 µM (inactive) | 69 µM (inactive) | 51.4 µM (inactive) | 65 µM (inactive) | 62.7 µM (inactive) | 55.7 µM (inactive) | 41 µM (inactive) | 76.7 µM (inactive) | 48 µM (inactive) | 15.8 µM (inactive) | 49.3 µM (inactive) | 35.5 µM (inactive) | 62.1 µM (inactive) | 42.3 µM (inactive)
Cn1c(=O)c2c(nc3n2CC(C(=O)O)N3)n(C)c1=O (stereo not given) | > 100 µM (inactive) | > 100 µM (inactive) | > 100 µM (inactive) | > 100 µM (inactive) | > 100 µM (inactive) | > 100 µM (inactive) | 0.036 µM (active) | > 100 µM (inactive) | > 100 µM (inactive) | > 100 µM (inactive) | > 100 µM (inactive) | > 100 µM (inactive) | > 100 µM (inactive) | > 100 µM (inactive) | 9.1 µM (inactive) | > 100 µM (inactive) | > 100 µM (inactive) | > 100 µM (inactive) | > 100 µM (inactive) | > 100 µM (inactive)
O=C(/C=C/c1cccs1)c1ccccc1Cl | 7.24 µM (inactive) | 12.4 µM (inactive) | 17.8 µM (inactive) | 13.4 µM (inactive) | 18.8 µM (inactive) | 14.6 µM (inactive) | 5.7 µM (inactive) | 16.4 µM (inactive) | 12.4 µM (inactive) | 25.5 µM (inactive) | 19.2 µM (inactive) | 14.1 µM (inactive) | 13.3 µM (inactive) | 14.1 µM (inactive) | 21.3 µM (inactive) | 16.8 µM (inactive) | 15.9 µM (inactive) | 15 µM (inactive) | 16.9 µM (inactive) | 12.2 µM (inactive)
O=C1c2cc3c(cc2CC12Cc1cc4c(cc1C2=O)CCCC4)CCCC3 | 16.4 µM (inactive) | 66.1 µM (inactive) | 23.2 µM (inactive) | 17.9 µM (inactive) | > 100 µM (inactive) | > 100 µM (inactive) | > 100 µM (inactive) | 31.8 µM (inactive) | > 100 µM (inactive) | 18.9 µM (inactive) | 22.1 µM (inactive) | 28.3 µM (inactive) | 58.2 µM (inactive) | 21.1 µM (inactive) | 78.5 µM (inactive) | > 100 µM (inactive) | 56.2 µM (inactive) | 24.6 µM (inactive) | > 100 µM (inactive) | > 100 µM (inactive)
CCCCCC(=O)Nc1[nH]cnc1C(N)=O | > 100 µM (inactive) | > 100 µM (inactive) | > 100 µM (inactive) | > 100 µM (inactive) | > 100 µM (inactive) | > 100 µM (inactive) | > 100 µM (inactive) | > 100 µM (inactive) | > 100 µM (inactive) | 71.3 µM (inactive) | > 100 µM (inactive) | > 100 µM (inactive) | > 100 µM (inactive) | > 100 µM (inactive) | > 100 µM (inactive) | > 100 µM (inactive) | > 100 µM (inactive) | > 100 µM (inactive) | > 100 µM (inactive) | > 100 µM (inactive)
O=C(O)C(Cc1c[nH]c2ccccc12)C(=O)NO (stereo not given) | > 100 µM (inactive) | > 100 µM (inactive) | > 100 µM (inactive) | > 100 µM (inactive) | > 100 µM (inactive) | > 100 µM (inactive) | > 100 µM (inactive) | > 100 µM (inactive) | > 100 µM (inactive) | > 100 µM (inactive) | > 100 µM (inactive) | > 100 µM (inactive) | > 100 µM (inactive) | > 100 µM (inactive) | > 100 µM (inactive) | > 100 µM (inactive) | > 100 µM (inactive) | > 100 µM (inactive) | > 100 µM (inactive) | > 100 µM (inactive)
COC(C)(C)OCCN1CCN(CCN2C3=C(C=C(C(C)=O)C3)Sc3ccccc32)CC1 | 17.9 µM (inactive) | 21.8 µM (inactive) | 19.5 µM (inactive) | 30.5 µM (inactive) | 17.6 µM (inactive) | 25.4 µM (inactive) | 17.3 µM (inactive) | 19.2 µM (inactive) | 20.7 µM (inactive) | 29.5 µM (inactive) | 22.3 µM (inactive) | 15.8 µM (inactive) | 15.3 µM (inactive) | 19.1 µM (inactive) | 15 µM (inactive) | 20.4 µM (inactive) | 26.7 µM (inactive) | 20.7 µM (inactive) | 18 µM (inactive) | 21.3 µM (inactive)
O=C1Nc2ccccc2/C1=C1/Nc2ccccc2/C1=N\OCCOC1OCC(O)C(O)C1O (stereo not given) | 50.6 µM (inactive) | > 100 µM (inactive) | > 100 µM (inactive) | > 100 µM (inactive) | 31 µM (inactive) | > 100 µM (inactive) | 85.7 µM (inactive) | 81.3 µM (inactive) | 8.59 µM (inactive) | > 100 µM (inactive) | > 100 µM (inactive) | > 100 µM (inactive) | 95.1 µM (inactive) | > 100 µM (inactive) | > 100 µM (inactive) | 25.5 µM (inactive) | > 100 µM (inactive) | > 100 µM (inactive) | > 100 µM (inactive) | > 100 µM (inactive)
